# Where “and” joins values, the source holds several entries; their conditions need not be identical. Equal entries are not always repeated. Where two headings read alike, the source gives them in different places.
# Tests used:
# mGluR5 (h) = biological target: T1, mGluR5 (h) (Homo sapiens, UniProt P41594); assay: mGluR5 (h) binding (agonist radioligand); conditions: human recombinant, read-out: % Inhibition of control specific binding, mGluR5 (h)
# T1 construct: purchased Cerep (Eurofins), Poitiers, France; Promega P450-Glo; in-house COS-7 uptake assays
# From the text: (§1) The general information is listed in the Supporting Information.
# D2L (h) = biological target: T2, D2L (h) (Homo sapiens, UniProt P14416); assay: D2L (h) functional assay; assay type: cell-based
# T2 construct: purchased Cerep (Eurofins), Poitiers, France; Promega P450-Glo; in-house COS-7 uptake assays
# From the text: as §1
# Dopamine transporter (h) = biological target: T3, Dopamine transporter (h) (Homo sapiens, UniProt Q01959); assay: Dopamine transporter (h) (antagonist radioligand); assay type: binding; conditions: read-out: % Inhibition, Dopamine transporter (h)
# T3 construct: purchased Cerep (Eurofins), Poitiers, France; Promega P450-Glo; in-house COS-7 uptake assays
# From the text: as §1
# EAAT3 = EAAT3 (Homo sapiens, UniProt P43005); conditions: transfected COS-7 cells
# [1] = biological target: T4, GLYT1 Glycine Transporter (Homo sapiens, UniProt P48067); assay: GLYT1 glycine transporter binding; conditions: rat brain, listed as (R)-7 [(R)-AS-1]
# T4 construct: purchased Cerep (Eurofins), Poitiers, France; Promega P450-Glo; in-house COS-7 uptake assays
# From the text: as §1
# mGluR1 = biological target: T5, mGluR1 (Rattus norvegicus, UniProt P23385); assay: mGluR1 binding (agonist radioligand); conditions: read-out: % Inhibition of control specific binding, mGluR1
# T5 construct: purchased Cerep (Eurofins), Poitiers, France; Promega P450-Glo; in-house COS-7 uptake assays
# Acetylcholinesterase (h) = biological target: T6, Acetylcholinesterase (h) (Homo sapiens, UniProt P22303); assay: Acetylcholinesterase (h) enzymatic activity; assay type: biochemical; conditions: read-out: % Inhibition, Acetylcholinesterase (h) enzymatic activity
# T6 construct: purchased Cerep (Eurofins), Poitiers, France; Promega P450-Glo; in-house COS-7 uptake assays
# From the text: as §1
# sst4 (h) = biological target: T7, sst4 (h) (Homo sapiens, UniProt P31391); assay: sst4 (h) functional assay; assay type: cell-based
# T7 construct: purchased Cerep (Eurofins), Poitiers, France; Promega P450-Glo; in-house COS-7 uptake assays
# From the text: as §1
# hERG potassium channel = hERG potassium channel (Homo sapiens, UniProt Q12809); assay: in vitro
# sst2 (h) = biological target: T8, sst2 (h) (Homo sapiens, UniProt P30874); assay: sst2 (h) functional assay; assay type: cell-based
# T8 construct: purchased Cerep (Eurofins), Poitiers, France; Promega P450-Glo; in-house COS-7 uptake assays
# From the text: as §1
# human SV2A = biological target: T9, human SV2A (Homo sapiens, UniProt Q7L0J3); assay: SV2A radioligand binding assay ([3H]brivaracetam); conditions: [3H]brivaracetam 3 nM, human SV2A-expressing CHO cell lysate
# T9 construct: expressed in transfected cells; host or cells: CHO cells
# Experimental: (§2) The competitive radioligand-binding assay was essentially performed as previously described.[96],[97] The SV2A-containing preparations, either cell lysate of human SV2A-expressing CHO cells, or membrane preparations of mouse brain cortex, were incubated with the radioligand [^3H]brivaracetam (3 nM) in the absence or presence of test compound for 4 h. Incubation was performed in 500 μL of Tris-buffer (50 mM Tris–HCl, pH 7.4) containing 2 mM MgCl2 at 4 °C on a rocking shaker. […] The test compounds were dissolved in dimethyl sulfoxide (DMSO) and further diluted in DMSO. The DMSO concentration in all vials was adjusted to 2%. The separation of bound and unbound radioligand was performed via rapid vacuum filtration using GF/C glass fiber filters that had been presoaked in Tris-buffer containing 0.1% polyethyleneimine for 30 min. The filters were rapidly washed three times with about 1 mL of Tris-buffer each and subsequently placed in a drying oven at 50 °C for 90 min. The filters were then transferred to scintillation vials and 2.5 mL of scintillation cocktail (ProSafe FC+, Meridian Biotechnologies Ltd.) was added. After an incubation period of at least 9 h, radioactivity was measured in a scintillation counter. Results were analyzed by GraphPad Prism 7.0.
# mouse SV2A = biological target: T10, mouse SV2A (Mus musculus, UniProt Q9JIS5); assay: SV2A radioligand binding assay ([3H]brivaracetam); conditions: mouse brain cortex membranes
# T10 construct: membrane preparations of mouse brain cortex; from tissue; host or cells: mouse brain cortex membranes
# Experimental: as §2
# CB1 (h) = biological target: T11, CB1 (h) (Homo sapiens, UniProt P21554); assay: CB1 (h) functional assay; assay type: cell-based
# T11 construct: purchased Cerep (Eurofins), Poitiers, France; Promega P450-Glo; in-house COS-7 uptake assays
# From the text: as §1
# Alpha 1A (h) = biological target: T12, Alpha 1A (h) (Homo sapiens, UniProt P35348); assay: Alpha 1A (h) functional assay; assay type: cell-based
# T12 construct: purchased Cerep (Eurofins), Poitiers, France; Promega P450-Glo; in-house COS-7 uptake assays
# From the text: as §1
# EAAT1 = EAAT1 (Homo sapiens, UniProt P43003); conditions: transfected COS-7 cells
# 5-HT7 (h) = biological target: T13, 5-HT7 (h) (Homo sapiens, UniProt P34969); assay: 5-HT7 (h) functional assay; assay type: cell-based
# T13 construct: purchased Cerep (Eurofins), Poitiers, France; Promega P450-Glo; in-house COS-7 uptake assays
# From the text: as §1
# D1 (h) = biological target: T14, D1 (h) (Homo sapiens, UniProt P21728); assay: D1 (h) functional assay; assay type: cell-based
# T14 construct: purchased Cerep (Eurofins), Poitiers, France; Promega P450-Glo; in-house COS-7 uptake assays
# From the text: as §1
# mGlu2 (h) = biological target: T15, mGlu2 (h) (Homo sapiens, UniProt Q14416); assay: mGlu2 (h) binding (antagonist radioligand); conditions: human recombinant (Chem-1 cells), read-out: % Inhibition of control specific binding, mGlu2 (h)
# T15 construct: purchased Cerep (Eurofins), Poitiers, France; Promega P450-Glo; in-house COS-7 uptake assays
# From the text: as §1
# recombinant human CYP3A4 = biological target: T16, recombinant human CYP3A4 (Homo sapiens, UniProt P08684); assay: CYP3A4 P450-Glo assay; assay type: in vitro ADME
# T16 construct: purchased Cerep (Eurofins), Poitiers, France; Promega P450-Glo; in-house COS-7 uptake assays
# From the text: (§3) The luminescent CYP3A4 P450-Glo and CYP2D6 P450-Glo assays and protocols were provided by Promega (Madison, WI).[98] The procedures were provided by the manufacturer and were similar as previously reported for the racemate I.[29]
# recombinant human CYP2C9 = biological target: T17, recombinant human CYP2C9 (Homo sapiens, UniProt P11712); assay: CYP2C9 activity assay; assay type: in vitro ADME; conditions: comparable to the racemate
# T17 construct: purchased Cerep (Eurofins), Poitiers, France; Promega P450-Glo; in-house COS-7 uptake assays
# GlyRA1 = biological target: T18, GlyRA1 (Homo sapiens, UniProt P23415); assay type: cell-based
# T18 construct: purchased Cerep (Eurofins), Poitiers, France; Promega P450-Glo; in-house COS-7 uptake assays
# T18 sequence (P23415 29-457): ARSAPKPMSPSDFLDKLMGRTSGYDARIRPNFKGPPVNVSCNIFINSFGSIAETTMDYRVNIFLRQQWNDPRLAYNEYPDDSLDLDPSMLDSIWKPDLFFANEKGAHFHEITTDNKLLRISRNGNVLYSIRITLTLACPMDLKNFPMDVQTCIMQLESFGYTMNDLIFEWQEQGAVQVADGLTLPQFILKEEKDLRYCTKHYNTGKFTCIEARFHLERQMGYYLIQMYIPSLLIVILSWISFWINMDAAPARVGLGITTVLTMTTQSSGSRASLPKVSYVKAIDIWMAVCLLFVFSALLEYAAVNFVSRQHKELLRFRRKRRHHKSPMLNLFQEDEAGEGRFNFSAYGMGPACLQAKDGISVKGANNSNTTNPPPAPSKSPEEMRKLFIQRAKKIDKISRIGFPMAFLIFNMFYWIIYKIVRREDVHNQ
# Glutamate, NMDA, Glycine = Glutamate, NMDA, Glycine (Rattus norvegicus, UniProt P35439); assay: Glutamate NMDA glycine [3H]MDL 105,519 binding; conditions: read-out: % Inhibition of control specific binding, Glutamate, NMDA, Glycine [3H] MDL 105,519
# From the text: as §1
# hCav3.2 = hCav3.2 (Homo sapiens, UniProt O95180); assay: cell-based
# recombinant human CYP2D6 = biological target: T19, recombinant human CYP2D6 (Homo sapiens, UniProt P10635); assay: CYP2D6 P450-Glo assay; assay type: in vitro ADME; conditions: only at the highest concentration of 25 μM
# T19 construct: purchased Cerep (Eurofins), Poitiers, France; Promega P450-Glo; in-house COS-7 uptake assays
# From the text: as §3
# [2] = 100 mg/kg i.p., mice
# [3] = biological target: T20, Norepinephrine transporter (h) (Homo sapiens, UniProt P23975); assay: Norepinephrine transporter (h) (antagonist radioligand); assay type: binding; conditions: read-out: % Inhibition, Norepinephrine transporter (h)
# T20 construct: purchased Cerep (Eurofins), Poitiers, France; Promega P450-Glo; in-house COS-7 uptake assays
# From the text: as §1
# 5-HT6 (h) = biological target: T21, 5-HT6 (h) (Homo sapiens, UniProt P50406); assay: 5-HT6 (h) functional assay; assay type: cell-based
# T21 construct: purchased Cerep (Eurofins), Poitiers, France; Promega P450-Glo; in-house COS-7 uptake assays
# From the text: as §1
# [4] = 100 μM, listed as (R)-7 [(R)-AS-1]
# [5] = 10 μM, listed as (R)-7 [(R)-AS-1]
# T11 sequence (P21554 whole entry): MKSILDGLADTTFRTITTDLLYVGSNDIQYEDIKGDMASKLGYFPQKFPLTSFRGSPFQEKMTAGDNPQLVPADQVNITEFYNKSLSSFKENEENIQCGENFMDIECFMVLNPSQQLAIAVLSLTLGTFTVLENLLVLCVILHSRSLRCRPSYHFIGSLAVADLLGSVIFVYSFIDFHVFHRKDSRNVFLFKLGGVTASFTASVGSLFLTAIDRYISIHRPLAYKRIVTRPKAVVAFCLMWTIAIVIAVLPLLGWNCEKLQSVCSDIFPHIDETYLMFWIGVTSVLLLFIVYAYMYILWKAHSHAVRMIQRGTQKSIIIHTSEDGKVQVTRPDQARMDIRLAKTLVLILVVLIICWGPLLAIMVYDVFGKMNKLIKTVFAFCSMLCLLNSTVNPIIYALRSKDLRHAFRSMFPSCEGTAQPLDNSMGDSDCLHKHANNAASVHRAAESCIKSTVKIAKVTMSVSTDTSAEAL
# T4 sequence (P48067 whole entry): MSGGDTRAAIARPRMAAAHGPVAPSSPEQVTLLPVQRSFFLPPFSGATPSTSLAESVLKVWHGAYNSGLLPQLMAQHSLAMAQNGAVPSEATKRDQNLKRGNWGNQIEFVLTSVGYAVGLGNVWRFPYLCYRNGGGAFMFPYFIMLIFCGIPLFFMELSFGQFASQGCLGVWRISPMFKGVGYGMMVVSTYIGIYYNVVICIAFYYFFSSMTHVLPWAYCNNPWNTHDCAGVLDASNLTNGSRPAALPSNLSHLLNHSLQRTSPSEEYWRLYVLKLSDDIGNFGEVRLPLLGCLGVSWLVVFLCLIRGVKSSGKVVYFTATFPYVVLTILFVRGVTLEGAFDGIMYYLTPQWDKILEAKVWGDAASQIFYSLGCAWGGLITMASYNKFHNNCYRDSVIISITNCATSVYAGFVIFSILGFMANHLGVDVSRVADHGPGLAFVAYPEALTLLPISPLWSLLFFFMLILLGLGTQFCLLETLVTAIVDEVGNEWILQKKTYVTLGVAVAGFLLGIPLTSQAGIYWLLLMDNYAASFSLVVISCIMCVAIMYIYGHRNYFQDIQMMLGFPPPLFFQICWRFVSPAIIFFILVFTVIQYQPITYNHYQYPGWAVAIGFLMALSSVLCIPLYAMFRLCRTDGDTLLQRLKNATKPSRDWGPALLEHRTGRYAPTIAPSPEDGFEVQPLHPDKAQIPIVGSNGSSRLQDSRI
# T9 sequence (Q7L0J3 whole entry): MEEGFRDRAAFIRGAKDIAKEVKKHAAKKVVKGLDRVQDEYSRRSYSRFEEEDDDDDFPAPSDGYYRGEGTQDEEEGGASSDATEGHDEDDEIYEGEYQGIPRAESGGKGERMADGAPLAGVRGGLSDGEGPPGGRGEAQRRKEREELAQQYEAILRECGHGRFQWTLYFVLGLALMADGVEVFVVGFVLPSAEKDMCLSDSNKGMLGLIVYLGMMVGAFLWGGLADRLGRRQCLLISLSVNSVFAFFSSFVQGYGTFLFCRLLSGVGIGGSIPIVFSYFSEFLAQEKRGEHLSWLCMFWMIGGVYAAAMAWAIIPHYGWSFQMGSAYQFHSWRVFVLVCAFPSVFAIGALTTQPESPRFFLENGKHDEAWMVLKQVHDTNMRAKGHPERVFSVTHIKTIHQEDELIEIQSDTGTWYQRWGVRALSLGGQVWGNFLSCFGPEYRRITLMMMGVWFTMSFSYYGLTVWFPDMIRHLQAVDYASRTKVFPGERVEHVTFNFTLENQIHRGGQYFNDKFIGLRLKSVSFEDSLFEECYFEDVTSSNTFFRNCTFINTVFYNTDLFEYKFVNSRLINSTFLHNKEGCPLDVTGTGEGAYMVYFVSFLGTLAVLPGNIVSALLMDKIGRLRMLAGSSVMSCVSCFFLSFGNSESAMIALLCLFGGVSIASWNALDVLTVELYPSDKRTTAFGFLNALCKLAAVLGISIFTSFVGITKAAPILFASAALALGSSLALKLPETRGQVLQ
# T14 sequence (P21728 whole entry): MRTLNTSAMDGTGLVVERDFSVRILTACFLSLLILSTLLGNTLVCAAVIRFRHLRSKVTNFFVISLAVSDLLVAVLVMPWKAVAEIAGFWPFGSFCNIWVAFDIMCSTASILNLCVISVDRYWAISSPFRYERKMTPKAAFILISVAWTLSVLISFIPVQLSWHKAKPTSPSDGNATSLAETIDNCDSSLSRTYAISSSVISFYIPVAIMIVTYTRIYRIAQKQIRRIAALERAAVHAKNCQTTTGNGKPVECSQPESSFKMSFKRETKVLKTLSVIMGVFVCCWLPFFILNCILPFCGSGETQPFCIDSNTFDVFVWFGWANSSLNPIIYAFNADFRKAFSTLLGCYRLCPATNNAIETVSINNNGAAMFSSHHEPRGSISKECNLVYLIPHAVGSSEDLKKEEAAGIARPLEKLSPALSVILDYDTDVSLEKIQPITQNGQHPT
# T12 sequence (P35348 whole entry): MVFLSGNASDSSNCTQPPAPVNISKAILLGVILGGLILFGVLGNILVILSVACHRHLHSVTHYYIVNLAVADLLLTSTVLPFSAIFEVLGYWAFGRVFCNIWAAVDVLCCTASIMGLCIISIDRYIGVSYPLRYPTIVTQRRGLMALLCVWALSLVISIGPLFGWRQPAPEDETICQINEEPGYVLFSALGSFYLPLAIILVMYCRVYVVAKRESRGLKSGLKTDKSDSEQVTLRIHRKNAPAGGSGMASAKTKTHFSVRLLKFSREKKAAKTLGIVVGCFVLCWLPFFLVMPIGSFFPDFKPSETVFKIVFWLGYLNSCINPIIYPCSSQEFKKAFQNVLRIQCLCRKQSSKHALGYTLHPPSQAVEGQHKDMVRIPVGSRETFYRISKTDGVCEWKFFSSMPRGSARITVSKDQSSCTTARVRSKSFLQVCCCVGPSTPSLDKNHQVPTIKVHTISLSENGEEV
# T7 sequence (P31391 whole entry): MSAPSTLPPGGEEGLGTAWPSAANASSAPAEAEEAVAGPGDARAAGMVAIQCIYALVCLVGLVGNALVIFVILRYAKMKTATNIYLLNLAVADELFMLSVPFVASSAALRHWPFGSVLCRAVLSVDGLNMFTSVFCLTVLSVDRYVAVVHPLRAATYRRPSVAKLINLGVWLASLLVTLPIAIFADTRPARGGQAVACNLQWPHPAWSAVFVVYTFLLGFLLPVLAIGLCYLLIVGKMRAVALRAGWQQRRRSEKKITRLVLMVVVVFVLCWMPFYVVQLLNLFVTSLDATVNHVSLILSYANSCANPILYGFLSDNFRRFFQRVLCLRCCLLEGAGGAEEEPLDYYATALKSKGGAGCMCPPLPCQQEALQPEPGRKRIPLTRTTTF
# T8 sequence (P30874 whole entry): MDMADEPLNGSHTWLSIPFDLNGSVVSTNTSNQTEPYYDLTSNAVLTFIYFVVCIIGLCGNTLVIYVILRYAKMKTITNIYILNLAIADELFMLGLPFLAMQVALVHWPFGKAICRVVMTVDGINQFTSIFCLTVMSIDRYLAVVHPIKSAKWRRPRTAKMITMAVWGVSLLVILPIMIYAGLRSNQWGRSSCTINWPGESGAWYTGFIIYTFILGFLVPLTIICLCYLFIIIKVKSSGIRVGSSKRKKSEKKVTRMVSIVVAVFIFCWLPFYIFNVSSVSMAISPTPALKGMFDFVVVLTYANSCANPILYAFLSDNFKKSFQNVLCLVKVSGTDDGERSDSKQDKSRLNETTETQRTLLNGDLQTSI
# T13 sequence (P34969 whole entry): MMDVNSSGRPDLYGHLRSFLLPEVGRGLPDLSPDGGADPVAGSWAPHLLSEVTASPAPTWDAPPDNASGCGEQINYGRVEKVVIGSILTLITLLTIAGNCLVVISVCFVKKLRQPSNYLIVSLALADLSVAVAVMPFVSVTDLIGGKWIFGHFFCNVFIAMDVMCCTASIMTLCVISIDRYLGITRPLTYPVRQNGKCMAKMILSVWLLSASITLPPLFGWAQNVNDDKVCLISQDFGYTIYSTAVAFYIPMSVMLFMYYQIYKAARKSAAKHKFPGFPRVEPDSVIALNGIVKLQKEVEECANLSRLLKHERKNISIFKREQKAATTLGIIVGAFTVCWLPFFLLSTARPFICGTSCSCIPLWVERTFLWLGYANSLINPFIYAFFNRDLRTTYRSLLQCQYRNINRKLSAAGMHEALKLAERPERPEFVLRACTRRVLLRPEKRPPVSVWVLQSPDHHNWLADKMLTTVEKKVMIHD
# T21 sequence (P50406 whole entry): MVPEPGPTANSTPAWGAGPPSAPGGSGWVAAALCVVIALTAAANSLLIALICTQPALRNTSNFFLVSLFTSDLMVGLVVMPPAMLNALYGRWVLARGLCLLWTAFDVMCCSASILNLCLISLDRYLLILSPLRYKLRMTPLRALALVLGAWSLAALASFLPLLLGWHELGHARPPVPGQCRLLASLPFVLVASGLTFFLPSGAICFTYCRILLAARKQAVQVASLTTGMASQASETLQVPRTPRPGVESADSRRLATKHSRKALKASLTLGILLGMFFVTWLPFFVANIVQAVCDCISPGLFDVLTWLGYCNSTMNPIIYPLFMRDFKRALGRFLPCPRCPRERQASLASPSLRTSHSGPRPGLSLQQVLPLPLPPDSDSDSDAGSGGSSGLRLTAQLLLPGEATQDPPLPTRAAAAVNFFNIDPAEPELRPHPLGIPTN
# T2 sequence (P14416 whole entry): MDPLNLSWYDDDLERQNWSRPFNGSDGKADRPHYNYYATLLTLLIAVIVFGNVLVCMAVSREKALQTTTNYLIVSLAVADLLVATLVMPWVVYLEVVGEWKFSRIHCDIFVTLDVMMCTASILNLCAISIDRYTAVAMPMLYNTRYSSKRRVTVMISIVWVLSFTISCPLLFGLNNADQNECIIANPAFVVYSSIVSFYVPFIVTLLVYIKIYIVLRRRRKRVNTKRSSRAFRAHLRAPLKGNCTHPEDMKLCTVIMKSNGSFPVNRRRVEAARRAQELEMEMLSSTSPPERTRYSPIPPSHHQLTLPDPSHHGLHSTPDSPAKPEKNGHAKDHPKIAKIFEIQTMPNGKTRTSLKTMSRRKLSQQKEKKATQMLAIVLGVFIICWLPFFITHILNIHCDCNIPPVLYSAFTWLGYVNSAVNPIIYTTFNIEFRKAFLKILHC
# T10 sequence (Q9JIS5 whole entry): as the sequence (Q7L0J3 whole entry) above, with S62A, T71A, E144D, A154T, G440S, S482A, I572V, M634L counted along it
smiles,measurement,setting,value
"C[C@H](C(=O)NCc1ccccc1)N1C(=O)CCC1=O [(R)-7, (R)-N-Benzyl-2-(2,5-dioxopyrrolidin-1-yl)propanamide]",inhibition at 10 µM,mGluR5 (h),-7.78%
same,"% Effect, D2L (h) (Agonist effect)",D2L (h); [4],0.22% and 0.22 (100 µM) %
same,inhibition at 100 µM,"D2L (h); read-out: % Inhibition, D2L (h) (Antagonist effect)",3.27%
same,inhibition at 100 µM,Dopamine transporter (h),-2.69%
same,effect on EAAT3-mediated glutamate uptake,EAAT3,no effects
same,"% Inhibition of control specific binding, GLYT1 Glycine Transporter",[1]; 10 μM,-2.00% and -1.00%
same,"% Inhibition of control specific binding, GLYT1 Glycine Transporter",[1]; 100 μM,-1.00% and -2.00%
same,inhibition at 10 µM,"mGluR1; 10 μM, rat brain",-6.72%
same,inhibition at 100 µM,mGluR1,-6.72%
same,inhibition at 10 µM,Acetylcholinesterase (h),1.59%
same,"% Effect, sst4 (h) (Agonist effect)",sst4 (h); [5],-7.88% and -7.88 (10 µM) %
same,inhibition at 50 µM,"sst4 (h); 50 μM, read-out: % Inhibition, sst4 (h) (Antagonist effect)",8.25%
same,inhibition at 100 µM,hERG potassium channel,-8.02%
same,"% Effect, sst2 (h) (Agonist effect)",sst2 (h); [5],0.50% and 0.50 (10 µM) %
same,inhibition at 50 µM,"sst2 (h); 50 μM, read-out: % Inhibition, sst2 (h) (Antagonist effect)",5.25%
same,Ki,human SV2A,275 µM and > 250 µM
same,Binding to mouse SV2A,mouse SV2A,no binding observed
same,"% Effect, CB1 (h) (Agonist effect)",CB1 (h); 10 µM (as printed in the xlsx),-6.83 (10 µM) %
same,"% Effect, CB1 (h) (Agonist effect)",CB1 (h); 100 μM,-6.83%
same,inhibition at 100 µM,"CB1 (h); read-out: % Inhibition, CB1 (h) (Antagonist effect)",5.59%
same,"% Effect, Alpha 1A (h) (Agonist effect)",Alpha 1A (h); [4],-2.05% and 2.05 (100 µM) %
same,inhibition at 100 µM,"Alpha 1A (h); read-out: % Inhibition, Alpha 1A (h) (Antagonist effect)",1.28%
same,effect on EAAT1-mediated glutamate uptake,EAAT1,no effects
same,"% Effect, 5-HT7 (h) (Agonist effect)",5-HT7 (h); [5],-4.26% and -4.26 (10 µM) %
same,inhibition at 10 µM,"5-HT7 (h); read-out: % Inhibition, 5-HT7 (h) (Antagonist effect)",-25%
same,"% Effect, D1 (h) (Agonist effect)",D1 (h); [4],1.70% and 1.70 (100 µM) %
same,inhibition at 100 µM,"D1 (h); read-out: % Inhibition, D1 (h) (Antagonist effect)",-2.57%
same,inhibition at 50 µM,mGlu2 (h),-8%
same,CYP3A4 activity,"recombinant human CYP3A4; 10 μM, ± SD",100.4 ± 4.2 % of control
same,effect on CYP3A4,recombinant human CYP3A4; only at the highest concentration of 25 μM,slight inhibition
same,effect in the CYP2C9 assay,recombinant human CYP2C9,moderate inhibitory effect
same,"GlyRA1 agonist, % Control, Mean",GlyRA1,1.94% and 1.94 (100 µM) %
same,"GlyRA1 agonist, % Control, n1",GlyRA1,1.83%
same,"GlyRA1 agonist, % Control, n2",GlyRA1,2.05%
same,inhibition at 10 µM,"Glutamate, NMDA, Glycine",-3%
same,inhibition at 100 µM,"hCav3.2; read-out: hCav3.2 % Inhibition, Mean",-0.79%
same,inhibition at 100 µM,"hCav3.2; read-out: hCav3.2 % Inhibition, n1",5.25%
same,inhibition at 100 µM,"hCav3.2; read-out: hCav3.2 % Inhibition, n2",-6.84%
same,effect on CYP2D6,recombinant human CYP2D6,slight activation
same,"AUC0–∞, brain",[2]; listed as (R)-7 [(R)-AS-1],2813.0 μg·min/mL(g) and 2813.04 μg·min/mL(g)
same,"AUC0–∞, serum",[2]; listed as (R)-7 [(R)-AS-1],4625.8 μg·min/mL(g) and 4625.78 μg·min/mL(g)
same,"Cmax, serum",[2]; listed as (R)-7 [(R)-AS-1],82.7 μg/mL(g) and 82.73 μg/mL(g)
same,total clearance,[2]; noncompartmental approach,approx. 0.6 mL/min
same,inhibition at 100 µM,[3],3.01%
same,"% Effect, 5-HT6 (h) (Agonist effect)",5-HT6 (h); [4],-0.26% and -0.26 (100 µM) %
same,inhibition at 100 µM,"5-HT6 (h); read-out: % Inhibition, 5-HT6 (h) (Antagonist effect)",-6.42%
"C[C@@H](C(=O)NCc1ccccc1)N1C(=O)CCC1=O [(S)-7, (S)-N-Benzyl-2-(2,5-dioxopyrrolidin-1-yl)propanamide]",Ki,human SV2A,255 ± 69 µM
same,Binding to mouse SV2A,mouse SV2A,no binding observed
